Patent US10738007B2, “Amide compounds as kinase inhibitors, compositions and methods of treatment” (TRANSLATIONAL DRUG DEVELOPMENT, LLC, priority 2016, dated 2020)
Where two headings read alike, the source gives them in different places.

What was measured:
[1] = target: ROCK1 (Homo sapiens (Human), UniProt Q13464); experiment: ROCK1 kinase inhibition assay (peptide phosphorylation, LABCHIP 3000); type: biochemical; details: 5 μM ATP, 3 nM ROCK1, 3 hours at 25° C.
Method: (§1) The peptide is phosphorylated by the protein kinase ROCK1 or ROCK2. The ROCK1 or ROCK2 enzyme, substrate, and cofactors (ATP and Mg^2+) are combined in a well of a microtiter plate and incubated for 3 hours at 25° C. in the presence or absence of an inhibitor compound. At the end of the incubation, the reaction is quenched by the addition of an EDTA-containing buffer. The substrate and product are separated and quantified electrophoretically using the microfluidic-based LABCHIP® 3000 Drug Discovery System from Caliper Life Sciences (Hopkinton, Mass.).
(§2) The components of the assay mixture are:
10 μM Sodium Orthovanadate
10 LM Beta-Glycerophosphate
(§3) 5 μM ATP (for ROCK1) or 7 μM ATP (for ROCK2)
3 nM ROCK1 or 2.5 nM ROCK2 enzyme
(§4) Substrate and product peptides present in each sample are separated electrophoretically using the LABCHIP® 3000 capillary electrophoresis instrument. […] Change in the relative fluorescence intensity of the substrate and product peaks is the parameter measured reflecting enzyme activity. Capillary electrophoregramms (RDA acquisition files) are analyzed using HTS Well Analyzer software (Caliper Life Sciences, Hopkinton, Mass.). The kinase activity in each sample is determined as the product to sum ratio (PSR): P/(S+P), where P is the peak height of the product peptide and S is the peak height of the substrate peptide. For each compound, enzyme activity is measured at various concentrations (12 concentrations of compound spaced by 3× dilution intervals). Negative control samples (0%-inhibition in the absence of inhibitor) and positive control samples (100%-inhibition in the presence of 20 mM EDTA) are assembled in replicates of four and are used to calculate %-inhibition values for each compound at each concentration. Percent inhibition (Pinh) is determined using the following equation: Pinh=(PSRO %−PSRinh)/(PSRO %−PSR100%)*100
(§5) where PSRinh is the product sum ratio in the presence of inhibitor, PSRO % is the average product sum ratio in the absence of inhibitor, and PSR100% is the average product sum ratio in 100%-inhibition control samples. The IC50 values of inhibitors are determined by fitting the inhibition curves (Pinh versus inhibitor concentration) by the 4-parameter sigmoidal dose-response model using XLfit 4 software (IBDS).

[2] = target: ROCK2 (Homo sapiens (Human), UniProt O75116); experiment: ROCK2 kinase inhibition assay (peptide phosphorylation, LABCHIP 3000); type: biochemical; details: 7 μM ATP, 2.5 nM ROCK2, 3 hours at 25° C.
ROCK2, sequence (O75116 whole entry, species assumed): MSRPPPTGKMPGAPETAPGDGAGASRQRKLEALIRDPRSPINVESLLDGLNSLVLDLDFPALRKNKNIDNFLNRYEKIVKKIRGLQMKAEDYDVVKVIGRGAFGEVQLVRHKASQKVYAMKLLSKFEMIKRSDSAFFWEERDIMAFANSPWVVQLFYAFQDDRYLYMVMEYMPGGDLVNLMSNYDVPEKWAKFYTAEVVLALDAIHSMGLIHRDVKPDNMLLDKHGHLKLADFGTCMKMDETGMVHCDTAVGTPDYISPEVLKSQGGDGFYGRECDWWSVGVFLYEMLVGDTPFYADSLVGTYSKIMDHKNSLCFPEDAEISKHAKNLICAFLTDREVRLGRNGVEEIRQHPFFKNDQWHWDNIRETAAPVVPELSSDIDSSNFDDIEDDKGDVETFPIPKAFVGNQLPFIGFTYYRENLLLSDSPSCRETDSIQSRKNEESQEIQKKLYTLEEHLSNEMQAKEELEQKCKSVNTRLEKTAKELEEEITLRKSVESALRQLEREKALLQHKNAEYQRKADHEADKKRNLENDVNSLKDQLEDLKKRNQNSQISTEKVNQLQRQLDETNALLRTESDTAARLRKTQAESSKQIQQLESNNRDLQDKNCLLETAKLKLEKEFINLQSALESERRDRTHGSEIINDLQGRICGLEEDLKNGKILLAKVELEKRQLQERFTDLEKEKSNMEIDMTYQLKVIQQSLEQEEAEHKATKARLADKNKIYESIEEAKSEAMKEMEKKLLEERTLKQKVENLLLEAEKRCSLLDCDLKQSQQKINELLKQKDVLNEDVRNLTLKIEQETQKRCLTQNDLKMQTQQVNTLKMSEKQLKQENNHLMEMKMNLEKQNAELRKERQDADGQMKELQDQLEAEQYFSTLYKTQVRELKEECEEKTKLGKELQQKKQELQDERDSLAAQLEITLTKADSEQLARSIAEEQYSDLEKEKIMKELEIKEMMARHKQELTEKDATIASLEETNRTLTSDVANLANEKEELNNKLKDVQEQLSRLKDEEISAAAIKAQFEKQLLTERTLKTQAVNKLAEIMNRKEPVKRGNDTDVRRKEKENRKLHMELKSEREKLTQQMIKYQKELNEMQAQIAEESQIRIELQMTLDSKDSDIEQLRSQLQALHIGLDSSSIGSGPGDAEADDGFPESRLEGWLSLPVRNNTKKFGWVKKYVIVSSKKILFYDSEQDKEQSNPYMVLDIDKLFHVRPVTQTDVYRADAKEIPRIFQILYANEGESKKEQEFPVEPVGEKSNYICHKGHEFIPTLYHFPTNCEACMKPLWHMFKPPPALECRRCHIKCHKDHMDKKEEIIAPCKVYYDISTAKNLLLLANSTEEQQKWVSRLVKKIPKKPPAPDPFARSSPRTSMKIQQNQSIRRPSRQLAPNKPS
Method: as §1, §2
10 μM Sodium Orthovanadate
10 LM Beta-Glycerophosphate
as §3
3 nM ROCK1 or 2.5 nM ROCK2 enzyme
as §4, §5

[3] = tested on: K562 cell line; experiment: Cell viability assay ([…]-GLO), K562; type: cell-based; details: Homo sapiens; K562 (does not express ITD-FLT3), 72 hours treatment
Outline: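 Cells seeded 2.5×10^3-5×10^3/well, grown 24 h, then exposed to compounds for 72 h. Viability read as ATP luminescence (CellTiter-Glo-type) after 37° C incubation; % growth = test/vehicle ×100. IC50 from sigmoidal dose-response fit.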

[4] = tested on: MV411 cell line; experiment: Cell viability assay ([…]-GLO), MV411; type: cell-based; details: for IC50: Homo sapiens, MV4-11, MV411 (ITD-FLT3+), 72 hours treatment; for FLT3-ITD+ Selectivity (K562/MV411): ratio K562/MV411
Method: Cell viability in the presence of varying concentrations of the above listed compounds at different time points was used to assess cytotoxicity and the effect of the compounds on cell proliferation.
Cell viability was measured by the […] -GlO® cell viability assay from Promega (Madison, Wis.). The […] -GlO Luminescent Cell Viability Assay is a homogeneous method to determine the number of viable cells in culture based on quantitation of the ATP present, which signals the presence of metabolically active cells. Following treatment, […] -GlO® is added to treatment wells and incubated at 37° C. Luminescence values were measured at using a Molecular Devices Spectramax microplate reader.
Cells were grown to 70% confluency, trypsinized, counted, and seeded in 96 well flat-bottom plates at a final concentration of 2.5×10^3-5×10^3 cells/well (Day 0). Cells were allowed to incubate in growth media for 24 hours. Treatment with the test agents or standard agents began on Day 1 and continued for 72 hours. At the 72-hour time point, treatment containing media was removed.
For single agent and combination studies, data from each experiment was collected and expressed as % Cell Growth using the following calculation: % Cell Growth=(ftest/fvehicle)×100
Where ftest is the luminescence of the tested sample, and fvehicle is the luminescence of the vehicle in which the drug is dissolved. Dose response graphs and IC50 values were generated using Prism 6 software (GraphPad) using the following equation: Y=(Top−Bottom)/(1+10^((logIC50-X)−HillSlope))
Where X is the logarithm of the concentration and Y is the response. Y starts at the Bottom and goes to the Top with a sigmoid shape.
The experiments also evaluated the selectivity of the compounds for inhibiting growth of cancer cells carrying a mutation in the Flt3 gene. The MV411 cell line expresses the mutant allele of Flt3 with internal tandem duplications (ITD) of the gene.

[5] = Pharmacokinetic activity in mice; type: in vivo; details: for AUC(0-t): read-out: AUC0-8
Method: Compounds were individually and accurately weighed out to produce a stock solution in Dimethyl-sulfoxide (DMSO) at a concentration of 2 mg/mL and stored at −20° C. From the stock solution, a working stock was prepared by diluting it in Methanol-Water 50:50 (v/v) at 20 μg/mL for calibration curve preparation and stored at 4° C. Standards used for quantitation and quality control samples (QCs) were prepared on the same day of sample processing using blank plasma obtained from non-treated mice. For each analyte, standards were prepared through serial dilutions of the working stock at concentrations of 0.1, 0.5, 1.0, 10, 50, 100, 500, and 1000 ng/mL; QCs were prepared at intermediate concentrations of 0.75, 7.5, 75, and 750 ng/mL. Plasma samples were stored at −80° C. until ready for analysis and then placed on ice for thawing. An aliquot of […] samples, standards, or QCs, were transferred into a 96-well extraction plate according to a pre-defined layout. An appropriate volume of Methanol-Formic Acid 99.9-0.1 containing internal standard (Verapamil at 25 ng/mL) was added to each well and the samples were extracted under vacuum. Eluent was then transferred into a LCMS plate for analysis using a suitable column for separation and MRM detection. Concentration of analytes was calculated based on the calibration curve and analyzed for pharmacokinetic parameters by using Non-compartmental analysis (NCA). Parameters such as Cmax, Tmax, half-life, AUC(0-last), AUC(0-∞), volume of distribution (Vss), and clearance (Cl/F) were reported.

ROCK1, sequence (Q13464 whole entry, species assumed): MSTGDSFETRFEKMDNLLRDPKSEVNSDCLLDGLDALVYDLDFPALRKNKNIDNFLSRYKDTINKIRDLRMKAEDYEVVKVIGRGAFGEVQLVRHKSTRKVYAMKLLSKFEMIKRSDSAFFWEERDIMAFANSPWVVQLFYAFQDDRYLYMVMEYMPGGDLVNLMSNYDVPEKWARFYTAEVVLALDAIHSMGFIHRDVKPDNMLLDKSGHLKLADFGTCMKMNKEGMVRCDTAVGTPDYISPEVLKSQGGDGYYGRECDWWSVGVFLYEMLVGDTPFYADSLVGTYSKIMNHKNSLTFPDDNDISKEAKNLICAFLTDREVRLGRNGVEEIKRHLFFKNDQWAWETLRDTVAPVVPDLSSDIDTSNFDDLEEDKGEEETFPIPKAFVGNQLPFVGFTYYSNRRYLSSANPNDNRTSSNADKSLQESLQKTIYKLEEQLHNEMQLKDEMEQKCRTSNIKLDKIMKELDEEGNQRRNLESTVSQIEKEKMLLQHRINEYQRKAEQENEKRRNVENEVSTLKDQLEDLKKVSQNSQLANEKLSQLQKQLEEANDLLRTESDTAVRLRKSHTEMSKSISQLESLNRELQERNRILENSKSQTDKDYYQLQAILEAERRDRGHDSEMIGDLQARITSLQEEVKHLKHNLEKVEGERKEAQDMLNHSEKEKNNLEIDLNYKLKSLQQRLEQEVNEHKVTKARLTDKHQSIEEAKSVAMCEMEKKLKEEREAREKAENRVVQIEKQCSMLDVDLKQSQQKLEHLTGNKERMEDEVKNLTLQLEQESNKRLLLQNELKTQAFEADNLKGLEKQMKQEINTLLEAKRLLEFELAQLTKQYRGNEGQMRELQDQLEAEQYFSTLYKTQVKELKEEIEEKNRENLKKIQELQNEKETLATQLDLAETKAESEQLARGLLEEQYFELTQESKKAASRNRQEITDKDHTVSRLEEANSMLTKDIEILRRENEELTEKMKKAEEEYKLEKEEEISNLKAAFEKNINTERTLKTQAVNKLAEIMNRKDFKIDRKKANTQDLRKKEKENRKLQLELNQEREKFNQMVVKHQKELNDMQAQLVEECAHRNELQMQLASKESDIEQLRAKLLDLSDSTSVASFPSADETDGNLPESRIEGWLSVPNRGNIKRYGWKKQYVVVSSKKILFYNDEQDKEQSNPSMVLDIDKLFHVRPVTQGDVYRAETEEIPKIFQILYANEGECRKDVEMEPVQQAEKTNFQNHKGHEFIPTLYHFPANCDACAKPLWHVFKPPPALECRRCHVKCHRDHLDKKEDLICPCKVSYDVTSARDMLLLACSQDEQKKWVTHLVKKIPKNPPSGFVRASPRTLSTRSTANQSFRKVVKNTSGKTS

O=C(NC1CCCC1)c1cccc([C@@H](CO)NC(=O)c2ccc(-c3ccncc3)cc2)c1 [Compound 10]
IC50 [1]: 4.8 nM | IC50 [2]: 0.87 nM | IC50 [3]: 17000 nM | IC50 [4]: 170 nM | FLT3-ITD+ Selectivity (K562/MV411) [4]: 100 | AUC % Extrap ([5]; IV - 1 mg/kg): 0.39% | Cl/F obs ([5]; IV - 1 mg/kg): 2.83 mL/min/kg | R-sq ([5]; IV - 1 mg/kg): 0.90 | AUC % Extrap ([5]; PO - 5 mg/kg): 0.09% | R-sq ([5]; PO - 5 mg/kg): 0.93 | AUC(0-inf) ([5]; mouse, plasma, IV - 1 mg/kg): 5370 ng·h/mL | C0 ([5]; mouse, plasma, IV - 1 mg/kg): 7000 ng/mL | Cmax ([5]; mouse, plasma, IV - 1 mg/kg): 4180 ng/mL | Tmax ([5]; mouse, plasma, IV - 1 mg/kg): 0.25 h | half-life ([5]; mouse, plasma, IV - 1 mg/kg): 3.86 h | AUC(0-t) ([5]; mouse, plasma, IV - 1 mg/kg): 5350 ng·h/mL | Vd ([5]; mouse, plasma, IV - 1 mg/kg, read-out: Vss): 0.32 L/kg | AUC(0-inf) ([5]; mouse, plasma, PO - 5 mg/kg): 51500 ng·h/mL | CL/F ([5]; mouse, plasma, PO - 5 mg/kg): 1.5 mL/min/kg | Cmax ([5]; mouse, plasma, PO - 5 mg/kg): 13100 ng/mL | Tmax ([5]; mouse, plasma, PO - 5 mg/kg): 1 h | half-life ([5]; mouse, plasma, PO - 5 mg/kg): 2.32 h | bioavailability ([5]; mouse, plasma, PO - 5 mg/kg vs IV - 1 mg/kg): > 100% | AUC(0-t) ([5]; mouse, plasma, PO - 5 mg/kg): 51400 ng·h/mL | Vd/F ([5]; mouse, plasma, PO - 5 mg/kg, read-out: Vz/F obs): 0.3 L/kg

CC(C)NC(=O)c1cccc(CNC(=O)c2ccc(-c3ccncc3)cc2)c1 [Compound 5]
IC50 [1]: 21.7 nM | IC50 [2]: 6.7 nM | IC50 [3]: > 100000 nM | IC50 [4]: 1500 nM | FLT3-ITD+ Selectivity (K562/MV411) [4]: >68

C[C@@H](NC(=O)c1ccc(-c2ccncc2)cc1)c1cccc(C(=O)NC2CC2)c1 [Compound 76]
IC50 [1]: 2.4 nM | IC50 [2]: 1.2 nM | IC50 [3]: 58000 nM | IC50 [4]: 480 nM | FLT3-ITD+ Selectivity (K562/MV411) [4]: 120

Cc1ccc(-c2ccncc2)cc1C(=O)N[C@H](CO)c1cccc(C(=O)NC2CCCC2)c1 [Compound 64]
IC50 [1]: 16.8 nM | IC50 [2]: 5.2 nM | IC50 [3]: > 100000 nM | IC50 [4]: 1490 nM | FLT3-ITD+ Selectivity (K562/MV411) [4]: >68
